# US5187156A, “Peptide compounds, processes for preparation thereof and pharmaceutical composition comprising the same” (priority 1988, dated 1993)
# Non-standard residues stand in square brackets, D forms with d. Residues, ends and D or L forms follow the SMILES beside them. *: point of attachment. Boc = CC(C)(C)OC(=O)*; OBn = c1ccc(CO*)cc1; For = O=C*
# Biological target: T1, Substance P receptor (Cavia porcellus, UniProt P30547)
# T1 construct: from tissue; host or cells: guinea pig (male Hartley) trachea and lung, crude membrane fraction
# T1 sequence (P30547 whole entry): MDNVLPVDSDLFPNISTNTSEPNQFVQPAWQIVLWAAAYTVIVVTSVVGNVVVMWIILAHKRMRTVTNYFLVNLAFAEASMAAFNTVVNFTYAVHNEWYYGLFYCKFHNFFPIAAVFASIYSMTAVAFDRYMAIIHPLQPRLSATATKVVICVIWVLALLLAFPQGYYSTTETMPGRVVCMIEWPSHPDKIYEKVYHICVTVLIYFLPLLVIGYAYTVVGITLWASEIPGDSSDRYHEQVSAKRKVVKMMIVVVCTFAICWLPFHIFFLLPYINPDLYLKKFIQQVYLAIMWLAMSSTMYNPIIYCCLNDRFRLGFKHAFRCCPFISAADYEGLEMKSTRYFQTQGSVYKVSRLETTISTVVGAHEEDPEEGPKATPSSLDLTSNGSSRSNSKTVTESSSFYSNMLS
# Assay: 3H-Substance P receptor binding to guinea pig crude lung membrane preparation
# Details: test compound 1 μg/ml; 3H-substance P 1 nM; guinea pig crude lung membrane fraction; 4° C., 30 minutes
# Experimental: 1. ^3 H-Substance P receptor binding
# (a) Crude lung membrane preparation
# Male Hartley strain guinea pigs were sacrificed by decapitation. The trachea and lung were removed and homogenized in buffer (0.25M sucrose, 50 mM Tris-HCl pH 7.5, 0.1 mM EDTA) by using Polytoron (Kinematica). The homogenate was centrifuged (1000 xg, 10 min) to remove tissue clumps and the supernatant was centrifuges (14000 xg 20 min) to yield pellets. The pellets were resuspended in buffer (5 mM Tris-HCl pH 7.5), homogenized with a teflon homogenizer and centrifuged (14000 xg, 20 min) to yield pellets which were referred to as crude membrane fractions. The obtained pellets were stored at -70° C. until use.
# (b) ^3 H-Substance P binding to preparative membrane
# Frozen crude membrane fractions were thawed and resuspended in Medium 1 (50 mM Tris-HCl pH 7.5, 5 mM MnCl2, 0.02% BSA, 2 μg/ml chymostatin, 4 μg/ml leupeptin, 40 μg/ml bacitracin.) ^3 H-substance P (1 nM) was incubated with 100 μl of the membrane preparation in Medium 1 at 4° C. for 30 minutes in a final volume of 500 µl. At the end of the incubation period, reaction mixture was quickly filtered over a Whatman GF/B glass filter (pretreated with 0.1% polyethylene imine for 3 hours prior to use) under aspiration. The filters were then washed four times with 5 ml of the buffer (50 mM Tris-HCl, pH 7.5). The radioactivity was counted in 5 ml of Aquazol-2 in Packerd scintillation counter (Packerd TRI-CARB 4530).
Molecule,inhibition at 1 µg/mL [%],Inhibition (%)
"CC(C)(C)OC(=O)N[C@@H](CC(N)=O)C(=O)N[C@H](Cc1cn(C=O)c2ccccc12)C(=O)N[C@@H](Cc1ccccc1)C(=O)OCc1ccccc1 [Test Compound (d), Boc-Asn-D-Trp(CHO)-Phe-OBzl] (Boc-Asn-[dW](For)-Phe-OBn)",99,–
"CN(C)C(=O)CC[C@H](NC(=O)OC(C)(C)C)C(=O)N[C@H](Cc1cn(C=O)c2ccccc12)C(=O)N[C@@H](Cc1ccccc1)C(=O)N(C)Cc1ccccc1 [Test Compound (j), Boc-Glu(NMe2)-D-Trp(CHO)-Phe-NMeBzl]",100,–
"CC(=O)N[C@H](C(=O)N[C@H](Cc1cn(C=O)c2ccccc12)C(=O)N[C@@H](Cc1ccccc1)C(=O)N(C)Cc1ccccc1)[C@@H](C)O [Test Compound (k), Ac-Thr-D-Trp(CHO)-Phe-NMeBzl]",100,–
"CC(=O)N[C@@H](CCC(=O)N(C)C)C(=O)N[C@H](Cc1cn(C=O)c2ccccc12)C(=O)N[C@@H](Cc1ccccc1)C(=O)N(C)Cc1ccccc1 [Test Compound (l), Ac-Glu(NMe2)-D-Trp(CHO)-Phe-NMeBzl]",100,–
"CN(Cc1ccccc1)C(=O)[C@H](Cc1ccccc1)NC(=O)[C@@H](Cc1cn(C=O)c2ccccc12)NC(=O)[C@H](CCC(N)=O)NC(=O)OC(C)(C)C [Test Compound (h), Boc-Gln-D-Trp(CHO)-Phe-NMeBzl]",100,–
"C[C@@H](O)[C@H](NC(=O)OC(C)(C)C)C(=O)N[C@H](Cc1cn(C=O)c2ccccc12)C(=O)N[C@@H](Cc1ccccc1)C(=O)N(C)Cc1ccccc1 [Test Compound (i), Boc-Thr-D-Trp(CHO)-Phe-NMeBzl]",100,–
"CC(=O)N[C@@H](CCC(N)=O)C(=O)N[C@H](Cc1cn(C=O)c2ccccc12)C(=O)N[C@@H](Cc1ccccc1)C(=O)OCc1ccccc1 [Test Compound (b), Ac-Gln-D-Trp(CHO)-Phe-OBzl] (Ac-Gln-[dW](For)-Phe-OBn)",100,–

# Next, values leading:
inhibition at 1 µg/mL [%],Inhibition (%),Molecule
100,–,"C[C@@H](O)[C@H](NC(=O)OC(C)(C)C)C(=O)N[C@H](Cc1cn(C=O)c2ccccc12)C(=O)N[C@@H](Cc1ccccc1)C(=O)OCc1ccccc1 [Test Compound (g), Boc-Thr-D-Trp(CHO)-Phe-OBzl] (Boc-Thr-[dW](For)-Phe-OBn)"
100,–,"CC(C)(C)OC(=O)N[C@@H](CCC(N)=O)C(=O)N[C@H](Cc1cn(C=O)c2ccccc12)C(=O)N[C@@H](Cc1ccccc1)C(=O)OCc1ccccc1 [Test Compound (a), Boc-Gln-D-Trp(CHO)-Phe-OBzl] (Boc-Gln-[dW](For)-Phe-OBn)"
99,–,"CC(C)(C)OC(=O)N[C@@H](CO)C(=O)N[C@H](Cc1cn(C=O)c2ccccc12)C(=O)N[C@@H](Cc1ccccc1)C(=O)OCc1ccccc1 [Test Compound (e), Boc-Ser-D-Trp(CHO)-Phe-OBzl] (Boc-Ser-[dW](For)-Phe-OBn)"
–,93,Z-Gln-D-Trp(CHO) -Phe-OBzl [Test Compound (c)]
100,–,"CN(C)C(=O)CC[C@H](NC(=O)OC(C)(C)C)C(=O)N[C@H](Cc1cn(C=O)c2ccccc12)C(=O)N[C@@H](Cc1ccccc1)C(=O)OCc1ccccc1 [Test Compound (f), Boc-Glu(NMe2)-D-Trp(CHO)-Phe-OBzl] (Boc-Glu(NMe2)-[dW](For)-Phe-OBn)"
